Legend:
Tetranychus urticae = Tetranychus urticae spray test, OP-resistant (TETRUR); assay type: in vivo; settings: application rate of 500 g/ha; after 6 days
Summary of the method: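 Mortality as % efficacy (0% = no mites killed) read 6 days after spraying. Formulation: active ingredient in acetone/dimethylformamide plus emulsifier, diluted with emulsifier-containing water, applied to Phaseolus vulgaris leaf discs carrying every life stage of OP-resistant spider mites.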

[1] = log P by HPLC (OECD Guideline 117), method [b] neutral range; assay type: physicochemical; settings: HPLC, method [b] neutral range
Protocol: (§1) The log P values were determined analogously to OECD Guideline 117 (EC Directive 92/69/EEC) by HPLC (high-performance liquid chromatography) using reversed-phase columns (C 18), by the following methods:
[b] The LC-MS determination in the neutral range is effected at pH 7.8 with 0.001 molar aqueous ammonium hydrogencarbonate solution and acetonitrile as eluents; linear gradient from 10% acetonitrile to 95% acetonitrile.

Meloidogyne incognita = Meloidogyne incognita test (MELGIN); assay type: in vivo; settings: application rate of 20 ppm; after 14 days, by formation of galls
Protocol: Meloidogyne Incognita Test (MELGIN)
• Solvent: 125.0 parts by weight of acetone
To produce an appropriate active ingredient formulation, 1 part by weight of active ingredient is mixed with the specified amounts of solvent and the concentrate is diluted to the desired concentration with water.
Vessels are filled with sand, active ingredient solution, an egg/larvae suspension of the southern root-knot nematode (Meloidogyne incognita) and lettuce seeds. The lettuce seeds germinate and the plants develop. The galls develop on the roots
After 14 days, the nematicidal efficacy in % is determined by the formation of galls. 100% means that no galls have been found; 0% means that the number of galls on the treated plants corresponds to the untreated control.

[2] = log P by HPLC (OECD Guideline 117), method [a] acidic range; assay type: physicochemical; settings: HPLC, method [a] acidic range
Protocol: as §1
[a] The LC-MS determination in the acidic range is effected at pH 2.7 with 0.1% aqueous formic acid and acetonitrile (contains 0.1% formic acid) as eluents; linear gradient from 10% acetonitrile to 95% acetonitrile.

Boophilus microplus = Boophilus microplus injection test (BOOPMI Inj); assay type: in vivo; settings: application rate of 20 μg/animal, assessed after 7 days by laying of fertile eggs
Summary of the method: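 Engorged adult female ticks (5 per test) injected in the abdomen with 1 μl of compound solution in DMSO, then held in a climate-controlled room. Efficacy scored after 7 days from fertile egg laying, with 100% meaning no fertile eggs and 0% all eggs fertile.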

Phaedon cochleariae = Phaedon cochleariae spray test (PHAECO); assay type: in vivo; settings: application rate of 500 g/ha; after 7 days
Protocol: Phaedon cochleariae—Spray Test (PHAECO)
• Solvent: 78.0 parts by weight of acetone • 1.5 parts by weight of dimethylformamide • Emulsifier: 0.5 part by weight of alkylaryl polyglycol ether
(§2) To produce an appropriate active ingredient formulation, 1 part by weight of active ingredient is mixed with the specified amounts of solvent and emulsifier, and the concentrate is diluted to the desired concentration with emulsifier-containing water.
Discs of Chinese cabbage leaves (Brassica pekinensis) are sprayed with an active ingredient formulation of the desired concentration and, after drying, populated with larvae of the mustard beetle (Phaedon cochleariae).
After 7 days, the efficacy in % is determined 100% means that all beetle larvae have been killed; 0% means that none of the beetle larvae have been killed.

Myzus persicae = Myzus persicae spray test (MYZUPE); assay type: in vivo; settings: application rate of 500 g/ha; after 6 days
Protocol: Myzus persicae—Spray Test (MYZUPE)
• Solvent: 78 parts by weight of acetone • 1.5 parts by weight of dimethylformamide • Emulsifier: 0.5 part by weight of alkylaryl polyglycol ether
as §2
Discs of Chinese cabbage leaves (Brassica pekinensis) infested by all stages of the green peach aphid (Myzus persicae) are sprayed with an active ingredient formulation of the desired concentration.
After 6 days, the activity in % is determined 100% means that all the aphids have been killed; 0% means that none of the aphids have been killed.

CC(CC(C)C)=Nn1c(C)nn(-c2cc(SCC(F)(F)F)c(C)cc2F)c1=O [Example 202]
efficacy (Tetranychus urticae): 100% | logP[b] [1]: 3.98 | nematicidal efficacy (Meloidogyne incognita): 100% | logP[a] [2]: 4.06

COc1nn(-c2cc(SCC(F)(F)F)c(C)cc2F)c(=O)n1C1CC1 [Example 105]
efficacy (Tetranychus urticae): 100% | logP[b] [1]: 3.11 | nematicidal efficacy (Meloidogyne incognita): 90% | efficacy (Boophilus microplus): 100% | logP[a] [2]: 3.16

COc1nn(-c2cc([S+]([O-])CC(F)(F)F)c(Cl)cc2F)c(=O)n1C1CC1 (stereo not drawn) [Example 115]
efficacy (Tetranychus urticae): 100% | logP[b] [1]: 2.43 | nematicidal efficacy (Meloidogyne incognita): 90% | efficacy (Boophilus microplus): 100% | logP[a] [2]: 2.45

Cc1cc(F)c(-n2nc(OCC(F)(F)F)n(C3CC3)c2=O)cc1SCC(F)(F)F [Example 103]
efficacy (Tetranychus urticae): 100% | logP[b] [1]: 3.72 | nematicidal efficacy (Meloidogyne incognita): 100% | efficacy (Boophilus microplus): 100% | logP[a] [2]: 3.80

CCC(C)Oc1nn(-c2cc(SCC(F)(F)F)c(C)cc2F)c(=O)n1C1CC1 (stereo not drawn) [Example 140]
efficacy (Tetranychus urticae): 100% | logP[b] [1]: 4.30 | nematicidal efficacy (Meloidogyne incognita): 90% | logP[a] [2]: 4.36

Cc1cc(F)c(-n2nc(OCC(C)(C)C)n(C)c2=O)cc1SCC(F)(F)F [Example 150]
efficacy (Tetranychus urticae): 100% | logP[b] [1]: 4.29 | nematicidal efficacy (Meloidogyne incognita): 90% | logP[a] [2]: 4.35

Cc1cc(F)c(-n2nc(C(F)(F)F)n(N(C)C)c2=O)cc1[S+]([O-])CC(F)(F)F (stereo not drawn) [Example 213]
efficacy (Tetranychus urticae): 90% | logP[b] [1]: 3.09 | nematicidal efficacy (Meloidogyne incognita): 90% | logP[a] [2]: 3.16

COc1nn(-c2cc([S+]([O-])CC(F)(F)F)c(C)cc2Cl)c(=O)n1C1CC1 (stereo not drawn) [Example 117]
efficacy (Tetranychus urticae): 90% | logP[b] [1]: 2.30 | nematicidal efficacy (Meloidogyne incognita): 100% | efficacy (Boophilus microplus): 100% | logP[a] [2]: 2.28

COc1nn(-c2cc([S+]([O-])CC(F)(F)F)c(C)cc2F)c(=O)n1C1CC1 (stereo not drawn) [Example 104]
efficacy (Tetranychus urticae): 100% | logP[b] [1]: 2.08 | nematicidal efficacy (Meloidogyne incognita): 90% | efficacy (Boophilus microplus): 100% | logP[a] [2]: 2.13

CCc1nn(-c2cc(SCC(F)(F)F)c(C)cc2F)c(=S)n1C1CC1 [Example 502]
efficacy (Phaedon cochleariae): 83% | efficacy (Tetranychus urticae): 90% | logP[b] [1]: 3.65 | nematicidal efficacy (Meloidogyne incognita): 90% | logP[a] [2]: 3.69

Cc1cc(F)c(-n2nnn(CC(F)(F)C(F)(F)F)c2=O)cc1[S+]([O-])CC(F)(F)F (racemic) [Example 446]
efficacy (Tetranychus urticae): 90% | logP[b] [1]: 3.01 | nematicidal efficacy (Meloidogyne incognita): 100% | logP[a] [2]: 3.05

COC1=CC(=O)N(c2ccc(C#N)c(SCC(F)(F)F)c2)C1 [Example 320]
efficacy (Phaedon cochleariae): 100% | logP[b] [1]: 2.43 | efficacy (Myzus persicae): 90% | logP[a] [2]: 2.45

Cc1cc(F)c(-n2nc(-c3ccc(Cl)cc3F)n(C)c2=O)cc1SCC(F)(F)F [Example 40]
efficacy (Tetranychus urticae): 100% | logP[b] [1]: 3.96 | nematicidal efficacy (Meloidogyne incognita): 100% | logP[a] [2]: 4.06

CCCCOc1nn(-c2cc([S+]([O-])CC(F)(F)F)c(C)cc2F)c(=O)n1C (stereo not drawn) [Example 146]
efficacy (Tetranychus urticae): 100% | logP[b] [1]: 2.85 | nematicidal efficacy (Meloidogyne incognita): 90% | logP[a] [2]: 2.90

Cc1cc(F)c(N2CC(OCC3CC3)=CC2=O)cc1SCC(F)(F)F [Example 331]
efficacy (Phaedon cochleariae): 83% | efficacy (Tetranychus urticae): 90% | logP[b] [1]: 3.58 | nematicidal efficacy (Meloidogyne incognita): 90% | logP[a] [2]: 3.64

Cc1cc(F)c(-n2nc(OCC(F)(F)F)n(C3CC3)c2=O)cc1[S+]([O-])CC(F)(F)F (stereo not drawn) [Example 102]
efficacy (Tetranychus urticae): 100% | logP[b] [1]: 2.77 | nematicidal efficacy (Meloidogyne incognita): 100% | efficacy (Boophilus microplus): 100% | logP[a] [2]: 2.83

COc1nn(-c2cc(SCC(F)(F)F)c(C)cc2Cl)c(=O)n1C1CC1 [Example 116]
efficacy (Tetranychus urticae): 90% | logP[b] [1]: 3.30 | nematicidal efficacy (Meloidogyne incognita): 100% | efficacy (Boophilus microplus): 100% | logP[a] [2]: 3.20

Cc1cc(F)c(-n2nnn(CC(F)(F)C(F)(F)F)c2=O)cc1SCC(F)(F)F [Example 444]
efficacy (Tetranychus urticae): 100% | logP[b] [1]: 4.04 | nematicidal efficacy (Meloidogyne incognita): 90% | logP[a] [2]: 4.09

Cc1cc(F)c(-n2nnn(CC(F)(F)F)c2=O)cc1SCC(F)(F)F [Example 304]
efficacy (Tetranychus urticae): 100% | logP[b] [1]: 3.48 | nematicidal efficacy (Meloidogyne incognita): 100% | logP[a] [2]: 3.61

C=CCn1c([S+]([O-])CCC)nn(-c2cc([S+]([O-])CC(F)(F)F)c(C)cc2F)c1=O (stereo not drawn) [Example 423]
efficacy (Tetranychus urticae): 90% | logP[b] [1]: 2.37 | efficacy (Myzus persicae): 90% | efficacy (Boophilus microplus): 100% | logP[a] [2]: 2.34

C=C(C)CCOc1nn(-c2ccc(C)c([S+]([O-])CC(F)(F)F)c2)c(=O)n1C1CC1 (stereo not drawn) [Example 139]
logP[b] [1]: 3.60 | nematicidal efficacy (Meloidogyne incognita): 90% | logP[a] [2]: 3.67

Cc1ccc(-n2nc(OCC3CC3)n(C)c2=O)cc1SCC(F)(F)F [Example 145]
logP[b] [1]: 4.19 | nematicidal efficacy (Meloidogyne incognita): 100% | logP[a] [2]: 4.20

COc1nn(-c2ccc(Cl)c(SCC(F)(F)F)c2)c(=O)n1C1CC1 [Example 108]
logP[b] [1]: 3.84 | nematicidal efficacy (Meloidogyne incognita): 90% | logP[a] [2]: 3.91

COc1nn(-c2ccc(Cl)c([S+]([O-])CC(F)(F)F)c2)c(=O)n1C (stereo not drawn) [Example 99]
efficacy (Tetranychus urticae): 90% | logP[b] [1]: 2.52 | nematicidal efficacy (Meloidogyne incognita): 90% | efficacy (Boophilus microplus): 100% | logP[a] [2]: 2.54

Cc1cc(F)c(N2CC(OCc3ccccc3)=CC2=O)cc1[S+]([O-])CC(F)(F)F (stereo not drawn) [Example 323]
logP[b] [1]: 2.81 | nematicidal efficacy (Meloidogyne incognita): 90% | logP[a] [2]: 2.87

Cc1cc(F)c(-n2nnn(CC(F)(F)F)c2=O)cc1[S+]([O-])CC(F)(F)F (racemic) [Example 305]
efficacy (Tetranychus urticae): 100% | logP[b] [1]: 2.51 | nematicidal efficacy (Meloidogyne incognita): 100% | efficacy (Boophilus microplus): 100% | logP[a] [2]: 2.57

C=C(C)CCOc1nn(-c2ccc(C)c(SCC(F)(F)F)c2)c(=O)n1C1CC1 [Example 138]
logP[b] [1]: 4.96 | nematicidal efficacy (Meloidogyne incognita): 90% | logP[a] [2]: 5.01

COc1nn(-c2cc([S+]([O-])CC(F)(F)F)c(Cl)cc2Cl)c(=O)n1C1CC1 (stereo not drawn) [Example 106]
efficacy (Phaedon cochleariae): 100% | efficacy (Tetranychus urticae): 100% | logP[b] [1]: 2.61 | nematicidal efficacy (Meloidogyne incognita): 90% | efficacy (Boophilus microplus): 100% | logP[a] [2]: 2.65

Cc1cc(F)c(-n2nc(OCC(F)(F)F)n(C)c2=O)cc1[S+]([O-])CC(F)(F)F (stereo not drawn) [Example 160]
efficacy (Tetranychus urticae): 100% | logP[b] [1]: 2.38 | nematicidal efficacy (Meloidogyne incognita): 100% | efficacy (Boophilus microplus): 100% | logP[a] [2]: 2.52

COc1nn(-c2cc([S+]([O-])CC(F)(F)F)c(C)cc2F)c(=O)n1CC(F)(F)F (stereo not drawn) [Example 415]
efficacy (Tetranychus urticae): 90% | logP[b] [1]: 2.45 | nematicidal efficacy (Meloidogyne incognita): 100% | efficacy (Boophilus microplus): 100% | logP[a] [2]: 2.48

Cc1cc(F)c(-n2nc(-c3ccc(Cl)cc3F)n(C)c2=O)cc1[S+]([O-])CC(F)(F)F (stereo not drawn) [Example 39]
efficacy (Tetranychus urticae): 90% | logP[b] [1]: 2.91 | nematicidal efficacy (Meloidogyne incognita): 90% | logP[a] [2]: 2.97

Cc1cc(F)c(-n2ncn(C3CC3)c2=O)cc1SCC(F)(F)F [Example 61]
efficacy (Tetranychus urticae): 100% | logP[b] [1]: 2.59 | nematicidal efficacy (Meloidogyne incognita): 100% | logP[a] [2]: 2.62

Cc1cc(F)c(N2CC(OCC3CC3)=CC2=O)cc1[S+]([O-])CC(F)(F)F (stereo not drawn) [Example 332]
efficacy (Phaedon cochleariae): 83% | efficacy (Tetranychus urticae): 90% | logP[b] [1]: 2.50 | nematicidal efficacy (Meloidogyne incognita): 90% | logP[a] [2]: 2.55
